Measured values as given in ChEMBL document CHEMBL1201862, “PubChem BioAssay data set” (2004).
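Compound exposure: 48 hours, 5 concentrations, 96-well plates. At the GI50, growth is halved.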 The source made the active and inactive calls. Cut-off read from the data, not from the text of the source: active = GI50 up to about 1.1 µM and inactive = higher.

Key:
Assay in all cases: DTP human tumour cell line panel, 48 h
UACC-257 = tested on: UACC-257
NCI-H460 = tested on: NCI-H460
CAKI-1 = tested on: CAKI-1
TK-10 = tested on: TK-10
COLO 205 = tested on: COLO 205
SW-620 = tested on: SW-620
HCT-15 = tested on: HCT-15
U-251 = tested on: U-251
OVCAR-5 = tested on: OVCAR-5
SNB-75 = tested on: SNB-75
SK-MEL-28 = tested on: SK-MEL-28
NCI-H23 = tested on: NCI-H23
MOLT-4 = tested on: MOLT-4
HCC 2998 = tested on: HCC 2998
EKVX = tested on: EKVX
CCRF-CEM = tested on: CCRF-CEM
NCI-H226 = tested on: NCI-H226
MDA-MB-435 = tested on: MDA-MB-435
T47D = tested on: T47D

Compound	GI50 (UACC-257)	GI50 (NCI-H460)	GI50 (CAKI-1)	GI50 (TK-10)	GI50 (COLO 205)	GI50 (SW-620)	GI50 (HCT-15) [µM]	GI50 (U-251)	GI50 (OVCAR-5)	GI50 (SNB-75)	GI50 (SK-MEL-28)	GI50 (NCI-H23)	GI50 (MOLT-4)	GI50 (HCC 2998)	GI50 (EKVX)	GI50 (CCRF-CEM)	GI50 (NCI-H226)	GI50 (MDA-MB-435)	GI50 (T47D)
O=C1Nc2ccccc2N/C1=C\C(=O)c1ccccc1O	> 100 µM (inactive)	> 100 µM (inactive)	> 100 µM (inactive)	> 100 µM (inactive)	> 100 µM (inactive)	> 100 µM (inactive)	> 100	> 100 µM (inactive)	> 100 µM (inactive)	> 100 µM (inactive)	> 100 µM (inactive)	> 100 µM (inactive)	> 100 µM (inactive)	> 100 µM (inactive)	> 100 µM (inactive)	> 100 µM (inactive)	> 100 µM (inactive)		
COc1cc2c(cc1OC)CC(=O)Nc1cc(OC)c(OC)cc1CC2	> 53.7 µM (inactive)	39.3 µM (inactive)	68.2 µM (inactive)	> 77.4 µM (inactive)	38.2 µM (inactive)	47.9 µM (inactive)	55	54.7 µM (inactive)	> 83.8 µM (inactive)	> 59.2 µM (inactive)	> 78.3 µM (inactive)	> 82.6 µM (inactive)	52.5 µM (inactive)	97.1 µM (inactive)	> 100 µM (inactive)	51.2 µM (inactive)	79.1 µM (inactive)		
C[C@]12CCC(=O)C(O)=C1CC[C@@H]1C2CC[C@]2(C)Nc3c(cnn3-c3ccccc3)CC12 (some centres undefined)	39 µM (inactive)	48.8 µM (inactive)	56.9 µM (inactive)	> 100 µM (inactive)		> 100 µM (inactive)	49.9	> 100 µM (inactive)	> 100 µM (inactive)	> 100 µM (inactive)	> 100 µM (inactive)	54.5 µM (inactive)	32.6 µM (inactive)	> 100 µM (inactive)	> 100 µM (inactive)	37.2 µM (inactive)	64.3 µM (inactive)		
CCC(=C(c1ccc(OCc2ccccc2)cc1)c1ccc(OCc2ccccc2)cc1)c1ccc(OC)cc1		> 100 µM (inactive)	> 100 µM (inactive)	> 100 µM (inactive)	> 100 µM (inactive)	> 100 µM (inactive)	> 100	> 100 µM (inactive)	> 100 µM (inactive)	> 100 µM (inactive)	> 100 µM (inactive)	> 100 µM (inactive)	> 100 µM (inactive)	> 100 µM (inactive)	> 100 µM (inactive)	> 100 µM (inactive)	> 100 µM (inactive)		
O=c1c2cccc3cccc(c4oc5c6cccc7cccc(c(=O)c5c14)c76)c32	17.1 µM (inactive)	12.5 µM (inactive)	15.8 µM (inactive)	11.6 µM (inactive)	10.9 µM (inactive)	11.8 µM (inactive)	11.4	12.7 µM (inactive)	27.2 µM (inactive)	14 µM (inactive)	13.3 µM (inactive)	13.2 µM (inactive)	12.5 µM (inactive)	27.2 µM (inactive)	12.2 µM (inactive)	5.47 µM (inactive)	17 µM (inactive)		
O=c1[nH]c(=O)n(C2OC(CO)C(O)C2O)cc1OCc1ccccc1 (centres undefined)	> 100 µM (inactive)	> 66.7 µM (inactive)	> 100 µM (inactive)	> 100 µM (inactive)	> 64.7 µM (inactive)	> 57 µM (inactive)	> 59	> 58.2 µM (inactive)	> 100 µM (inactive)	> 100 µM (inactive)	> 100 µM (inactive)	> 100 µM (inactive)	> 100 µM (inactive)	> 100 µM (inactive)	> 100 µM (inactive)	> 60.5 µM (inactive)	> 100 µM (inactive)		
COc1ccc(C2=Nc3ccccc3N=C(SC)C2)cc1	22.1 µM (inactive)	24.5 µM (inactive)	46.8 µM (inactive)	40.7 µM (inactive)	51.3 µM (inactive)	16.9 µM (inactive)	33.7	32.2 µM (inactive)	44 µM (inactive)	74 µM (inactive)	> 100 µM (inactive)	32.8 µM (inactive)	25.5 µM (inactive)	28.7 µM (inactive)	41 µM (inactive)	13.2 µM (inactive)	> 100 µM (inactive)		
O=[N+]([O-])/C(C(Cl)=C(Cl)Cl)=C(\N1CCCCC1)n1cncn1	17.5 µM (inactive)	26.2 µM (inactive)	10.6 µM (inactive)	17.2 µM (inactive)	15.7 µM (inactive)	15.8 µM (inactive)	16	13.3 µM (inactive)	16.2 µM (inactive)	23 µM (inactive)	16.3 µM (inactive)	15.2 µM (inactive)	> 24.2 µM (inactive)	20 µM (inactive)	15.8 µM (inactive)	3.79 µM (inactive)	18.3 µM (inactive)	17.9 µM (inactive)	14.8 µM (inactive)
N#CC(/C(=N/NC(=N)N)C(=O)Nc1ccccc1[N+](=O)[O-])c1nc(-c2ccc([N+](=O)[O-])cc2)cs1 (centres undefined)	> 100 µM (inactive)	> 100 µM (inactive)	> 100 µM (inactive)	> 100 µM (inactive)	> 100 µM (inactive)	> 100 µM (inactive)	> 100	> 100 µM (inactive)	> 100 µM (inactive)	> 100 µM (inactive)	> 100 µM (inactive)	> 100 µM (inactive)	> 100 µM (inactive)	> 100 µM (inactive)	> 100 µM (inactive)	> 100 µM (inactive)	> 100 µM (inactive)		
C=CCNC(=S)N/C=C1\C(=O)Oc2ccccc2C1=O	> 100 µM (inactive)	> 100 µM (inactive)	22.2 µM (inactive)	64.7 µM (inactive)	> 100 µM (inactive)	74.6 µM (inactive)	60.5	59.8 µM (inactive)	62.4 µM (inactive)	18.7 µM (inactive)	> 100 µM (inactive)	> 100 µM (inactive)	> 100 µM (inactive)	68.4 µM (inactive)	> 100 µM (inactive)	> 100 µM (inactive)	28.9 µM (inactive)		
O=C(C(=O)c1cc2ccccc2[nH]1)c1cc2ccccc2[nH]1	> 204 µM (inactive)	> 321 µM (inactive)	234 µM (inactive)	> 347 µM (inactive)	> 347 µM (inactive)	153 µM (inactive)	94.2	> 347 µM (inactive)	> 347 µM (inactive)	> 347 µM (inactive)	149 µM (inactive)	> 255 µM (inactive)	24 µM (inactive)	> 347 µM (inactive)	> 347 µM (inactive)	> 247 µM (inactive)	> 347 µM (inactive)		
[N-]=[N+]=CC(=O)OC(CCl)CCl	> 100 µM (inactive)	25.2 µM (inactive)		> 100 µM (inactive)	> 100 µM (inactive)	> 100 µM (inactive)	> 100	> 100 µM (inactive)	> 100 µM (inactive)		> 100 µM (inactive)	> 100 µM (inactive)	> 100 µM (inactive)	> 100 µM (inactive)	> 100 µM (inactive)	> 10 µM (inactive)	> 100 µM (inactive)	> 100 µM (inactive)	
Cc1c(Cl)cccc1NC(=O)C(=O)C1C(=O)CC(C)(C)CC1=O	> 100 µM (inactive)	> 100 µM (inactive)	> 100 µM (inactive)	> 100 µM (inactive)	> 100 µM (inactive)	> 100 µM (inactive)	> 100	> 100 µM (inactive)	> 100 µM (inactive)	> 100 µM (inactive)	> 100 µM (inactive)	> 100 µM (inactive)	> 100 µM (inactive)	> 100 µM (inactive)	> 100 µM (inactive)	> 100 µM (inactive)	> 100 µM (inactive)		
CC(=O)Nc1ccc(COC(O)CN2CCCCC2)cc1[N+](=O)[O-] (centres undefined)	> 100 µM (inactive)	> 100 µM (inactive)	> 100 µM (inactive)	> 100 µM (inactive)	> 100 µM (inactive)	> 100 µM (inactive)	> 100	> 100 µM (inactive)	> 100 µM (inactive)	> 100 µM (inactive)	> 100 µM (inactive)	> 100 µM (inactive)	> 100 µM (inactive)	> 100 µM (inactive)		> 100 µM (inactive)	> 100 µM (inactive)	> 100 µM (inactive)	> 100 µM (inactive)
C=CC(=O)Nc1ccccc1CC(c1c[nH]c2ccccc12)c1c[nH]c2ccccc12	18.9 µM (inactive)		18.2 µM (inactive)	26.7 µM (inactive)	16.7 µM (inactive)	20.2 µM (inactive)	18.7			14.1 µM (inactive)	17.8 µM (inactive)	20 µM (inactive)	19.5 µM (inactive)	18.7 µM (inactive)	17.5 µM (inactive)	19.9 µM (inactive)	21.3 µM (inactive)		
CCCCCCCCC(O)C#CC(N)=O (centres undefined)	13 µM (inactive)	9.1 µM (inactive)	8.67 µM (inactive)	16 µM (inactive)		14.1 µM (inactive)	13.2	8.34 µM (inactive)	26.7 µM (inactive)	3.37 µM (inactive)	15.5 µM (inactive)	17.6 µM (inactive)	16.9 µM (inactive)	10.6 µM (inactive)	11.4 µM (inactive)	15.5 µM (inactive)	10.8 µM (inactive)		
O=C(NCCO)c1ccc([N+](=O)[O-])cc1	> 100 µM (inactive)	> 100 µM (inactive)	> 100 µM (inactive)	> 100 µM (inactive)	> 100 µM (inactive)	> 100 µM (inactive)	> 100	> 100 µM (inactive)		> 100 µM (inactive)	> 100 µM (inactive)	> 100 µM (inactive)	> 100 µM (inactive)	> 100 µM (inactive)	> 100 µM (inactive)	> 100 µM (inactive)	> 100 µM (inactive)		
